Measured values from ChEMBL document CHEMBL2331529, “Design and Synthesis of Potent Bivalent Peptide Agonists Targeting the EphA2 Receptor” (ACS Med Chem Lett, 2013).
pIC50: −log10 of the molar value. Activity calls are given as the source filed them. The rule behind the calls is not given here.

What was measured:
[1] = target: Ephrin type-A receptor 4 (Homo sapiens) (UniProt P54764); assay: Agonist activity at IgG1 Fc region fused-immobilized EphA4 (unknown origin) assessed as inhibition of EphA4/ephrin-A5 AP interaction at 10 uM incubated for 3 hrs by ELISA
[2] = target: T1, Ephrin type-B receptor 2 (Homo sapiens) (UniProt P29323); assay: Agonist activity at IgG1 Fc region fused-immobilized EphB2 (unknown origin) assessed as inhibition of EphB2/ephrin-B2 AP interaction at 10 uM incubated for 3 hrs by ELISA
T1 sequence (whole entry): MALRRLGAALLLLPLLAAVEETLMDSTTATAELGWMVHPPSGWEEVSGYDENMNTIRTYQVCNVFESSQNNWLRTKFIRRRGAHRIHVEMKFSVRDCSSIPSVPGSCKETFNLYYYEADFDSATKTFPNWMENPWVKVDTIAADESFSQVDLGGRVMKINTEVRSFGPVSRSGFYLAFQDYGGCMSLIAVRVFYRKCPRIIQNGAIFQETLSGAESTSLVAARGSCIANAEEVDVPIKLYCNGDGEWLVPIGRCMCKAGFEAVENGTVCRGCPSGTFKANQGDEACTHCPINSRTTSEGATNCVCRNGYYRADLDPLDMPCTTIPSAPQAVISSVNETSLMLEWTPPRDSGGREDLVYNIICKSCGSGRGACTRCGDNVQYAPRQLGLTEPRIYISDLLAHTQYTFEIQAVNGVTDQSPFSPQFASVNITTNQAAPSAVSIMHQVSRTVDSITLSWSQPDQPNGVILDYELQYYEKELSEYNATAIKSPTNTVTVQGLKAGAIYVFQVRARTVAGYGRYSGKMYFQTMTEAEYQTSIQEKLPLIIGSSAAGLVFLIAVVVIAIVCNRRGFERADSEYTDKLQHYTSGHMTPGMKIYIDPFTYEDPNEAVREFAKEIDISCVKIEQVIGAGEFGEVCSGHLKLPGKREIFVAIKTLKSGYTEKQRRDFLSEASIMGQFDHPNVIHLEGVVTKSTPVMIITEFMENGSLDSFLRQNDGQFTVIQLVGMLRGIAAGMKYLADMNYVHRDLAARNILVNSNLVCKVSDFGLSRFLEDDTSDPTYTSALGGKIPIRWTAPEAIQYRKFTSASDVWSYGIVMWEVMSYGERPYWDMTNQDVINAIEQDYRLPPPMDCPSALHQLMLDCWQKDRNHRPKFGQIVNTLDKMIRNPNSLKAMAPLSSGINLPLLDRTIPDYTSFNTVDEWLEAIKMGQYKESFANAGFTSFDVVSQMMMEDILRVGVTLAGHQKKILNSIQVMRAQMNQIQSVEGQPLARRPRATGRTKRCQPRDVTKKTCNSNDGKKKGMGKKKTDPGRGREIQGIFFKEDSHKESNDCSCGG

Ephrin type-A receptor 2 = Ephrin type-A receptor 2 (Homo sapiens, UniProt P29317); assay: Agonist activity at IgG1 Fc region fused-immobilized EphA2 ectodomain (unknown origin) assessed as inhibition of EphA2/ephrin-A5 AP interaction incubated for 3 hrs by ELISA
Chain of Ephrin type-A receptor 2 (P29317 whole entry, the tested form may be a part): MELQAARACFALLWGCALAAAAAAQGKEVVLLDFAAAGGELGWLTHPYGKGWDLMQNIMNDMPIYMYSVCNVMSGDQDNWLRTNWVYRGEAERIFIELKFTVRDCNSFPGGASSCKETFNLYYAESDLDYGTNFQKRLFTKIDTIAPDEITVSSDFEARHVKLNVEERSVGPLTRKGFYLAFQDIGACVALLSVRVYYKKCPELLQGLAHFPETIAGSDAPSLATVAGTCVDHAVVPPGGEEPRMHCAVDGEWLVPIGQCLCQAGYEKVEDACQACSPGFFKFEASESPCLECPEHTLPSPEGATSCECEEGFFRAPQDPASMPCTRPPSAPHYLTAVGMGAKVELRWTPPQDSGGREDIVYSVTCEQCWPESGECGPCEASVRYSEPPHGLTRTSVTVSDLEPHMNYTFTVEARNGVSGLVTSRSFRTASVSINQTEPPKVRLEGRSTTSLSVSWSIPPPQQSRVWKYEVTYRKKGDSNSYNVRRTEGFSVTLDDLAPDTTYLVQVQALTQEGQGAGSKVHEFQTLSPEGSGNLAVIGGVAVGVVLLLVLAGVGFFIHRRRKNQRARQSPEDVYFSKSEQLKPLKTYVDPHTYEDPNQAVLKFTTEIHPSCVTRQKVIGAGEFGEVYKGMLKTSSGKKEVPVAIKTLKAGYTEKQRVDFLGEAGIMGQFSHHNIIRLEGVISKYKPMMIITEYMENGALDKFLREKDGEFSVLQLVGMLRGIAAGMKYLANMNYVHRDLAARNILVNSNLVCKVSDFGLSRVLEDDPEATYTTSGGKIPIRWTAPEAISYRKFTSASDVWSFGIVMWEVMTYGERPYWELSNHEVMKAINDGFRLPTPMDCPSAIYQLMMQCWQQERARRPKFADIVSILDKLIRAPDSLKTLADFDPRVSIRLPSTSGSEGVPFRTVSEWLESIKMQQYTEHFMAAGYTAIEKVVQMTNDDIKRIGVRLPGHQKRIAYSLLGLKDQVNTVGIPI

Chain of Ephrin type-A receptor 4 (Homo sapiens) (P54764 whole entry, the tested form may be a part): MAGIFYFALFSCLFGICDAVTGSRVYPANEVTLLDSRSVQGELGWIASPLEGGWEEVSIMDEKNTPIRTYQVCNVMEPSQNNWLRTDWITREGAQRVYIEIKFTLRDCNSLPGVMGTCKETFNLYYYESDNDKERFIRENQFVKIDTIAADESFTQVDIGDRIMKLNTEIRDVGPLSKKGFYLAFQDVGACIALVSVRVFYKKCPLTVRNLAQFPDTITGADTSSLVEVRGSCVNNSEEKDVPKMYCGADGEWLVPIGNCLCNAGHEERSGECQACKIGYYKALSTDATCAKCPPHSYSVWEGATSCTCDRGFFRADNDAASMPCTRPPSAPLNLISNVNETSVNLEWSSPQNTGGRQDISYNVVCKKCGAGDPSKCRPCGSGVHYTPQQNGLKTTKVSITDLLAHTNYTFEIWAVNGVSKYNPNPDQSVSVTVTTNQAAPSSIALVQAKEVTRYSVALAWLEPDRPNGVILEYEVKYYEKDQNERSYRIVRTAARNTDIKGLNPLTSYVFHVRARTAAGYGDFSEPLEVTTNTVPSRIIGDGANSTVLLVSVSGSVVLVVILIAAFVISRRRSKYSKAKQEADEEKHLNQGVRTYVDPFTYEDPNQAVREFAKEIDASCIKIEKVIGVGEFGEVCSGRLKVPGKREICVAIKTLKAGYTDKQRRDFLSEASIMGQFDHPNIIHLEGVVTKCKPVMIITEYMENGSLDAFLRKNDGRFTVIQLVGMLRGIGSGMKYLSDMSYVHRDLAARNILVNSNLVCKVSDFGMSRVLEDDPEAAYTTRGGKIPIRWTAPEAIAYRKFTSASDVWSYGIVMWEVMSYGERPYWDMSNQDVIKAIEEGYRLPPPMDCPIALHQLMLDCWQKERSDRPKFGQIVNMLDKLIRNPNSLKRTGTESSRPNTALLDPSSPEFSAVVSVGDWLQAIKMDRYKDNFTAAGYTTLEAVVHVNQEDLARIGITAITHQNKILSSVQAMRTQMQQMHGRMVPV

inhibition [1]	inhibition [2]	pIC50 (Ephrin type-A receptor 2)	Compound
Active	Active		CC(C)C[C@H](NC(=O)[C@H](C)NC(=O)[C@H](Cc1ccc(O)cc1)NC(=O)[C@@H]1CCCN1C(=O)CNC(=O)[C@H](C)NC(=O)[C@@H](NC(=O)[C@H](CO)NC(=O)[C@H](Cc1ccc(O)cc1)NC(=O)[C@H](CCCNC(=N)N)NC(=O)[C@H](CCCCNC(=O)CCCCCN)NC(=O)[C@H](CCCNC(=N)N)NC(=O)[C@H](Cc1ccc(O)cc1)NC(=O)[C@H](CO)NC(=O)[C@@H](NC(=O)[C@H](C)NC(=O)CNC(=O)[C@@H]1CCCN1C(=O)[C@H](Cc1ccc(O)cc1)NC(=O)[C@H](C)NC(=O)[C@H](CC(C)C)NC(=O)[C@H](Cc1c[nH]c2ccccc12)NC(=O)[C@@H](N)CO)C(C)C)C(C)C)C(=O)N[C@@H](Cc1c[nH]c2ccccc12)C(=O)N[C@@H](CO)C(=O)O
		≤ 4.00	H-SALAYPGAVSYR-OH
		≤ 4.00	H-SWLAAPGAVSYR-OH
		≤ 4.00	H-SWLAYAGAVSYR-OH
		< 4.00	H-SWLSYPGAVSYR-OH
